Values quoted from earlier work in patent US11224646B2, “Intranasal delivery of a cyclic-di-nucleotide adjuvanted vaccine for tuberculosis” (priority 2018, dated 2022).

Assays:
murine STING = target: T1, murine STING (Mus musculus, UniProt Q3TBT3)
T1 sequence (Q3TBT3 1-378): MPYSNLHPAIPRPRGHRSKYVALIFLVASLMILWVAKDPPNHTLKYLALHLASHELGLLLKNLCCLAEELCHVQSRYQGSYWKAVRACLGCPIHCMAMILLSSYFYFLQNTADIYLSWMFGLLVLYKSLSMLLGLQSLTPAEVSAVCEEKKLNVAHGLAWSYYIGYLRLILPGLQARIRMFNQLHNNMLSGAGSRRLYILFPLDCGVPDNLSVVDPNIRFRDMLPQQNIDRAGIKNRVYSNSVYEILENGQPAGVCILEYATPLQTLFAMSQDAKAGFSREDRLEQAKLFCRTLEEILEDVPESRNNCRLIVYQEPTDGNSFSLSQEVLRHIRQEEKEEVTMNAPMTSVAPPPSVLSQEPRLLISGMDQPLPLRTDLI

[1] = system: five common human STING alleles

SMILES | activation of murine STING (murine STING) | engagement / activation of the five common human STING alleles [1] | hydrolysis by phosphodiesterases (phosphodiesterases)
Nc1nc2c(ncn2[C@@H]2O[C@@H]3CO[P@@](=O)(S)O[C@H]4[C@@H](O)[C@H](n5cnc6c(=O)[nH]c(N)nc65)O[C@@H]4CO[P@@](=O)(S)O[C@H]3[C@H]2O)c(=O)[nH]1 [RR-CDG, dithio-[RP, RP]-cyclic-[G(3′,5′)pG(3′,5′)p]] | efficiently activates murine STING | does not engage all five common STING alleles | –
Nc1nc2c(ncn2[C@@H]2O[C@@H]3COP(=O)(S)O[C@H]4[C@@H](O)[C@H](n5cnc6c(N)ncnc65)O[C@@H]4CO[P@@](=O)(S)O[C@@H]2[C@@H]3O)c(=O)[nH]1 (stereo partly drawn) [ML-RR-cGAMP, dithio-[RP, RP]-cyclic-[G(2′,5′)pA(3′,5′)p]] | – | – | resistant to hydrolysis by phosphodiesterases
